Values quoted from earlier work as cited in publication PMC5563391 (Investigational new drugs, 2015).

Tested on: patients with CML or Ph+ ALL
Settings: phase 1 study; cited from earlier work

## CO[C@@H](C(=O)N1Cc2n[nH]c(NC(=O)c3ccc(N4CCN(C)CC4)cc3)c2C1)c1ccccc1 [danusertib]
  patients with responses: 6 of 23
